Experimental data: ChEMBL document CHEMBL1133460, “Synthesis and biological evaluation of certain alpha,beta-unsaturated ketones and their corresponding fused pyridines as antiviral and cytotoxic agents” (J Med Chem, 2000)
Values after ≈ are worked out from the molar mass of the structure shown. Values joined by “and” are separate entries in the source; they are usually repeats but may differ in a detail not shown here. Identical values can stand only once. Active and inactive are the calls of the source. The calls are words filed in the database; no cut-off is given here.

Tests used:
[1] = tested on: Panel CNS (Carcinoma cell lines); assay: In vitro growth inhibitory concentration against CNS cancer cell lines; format: functional; conditions: Homo sapiens
[2] = tested on: Panel leukemia (Carcinoma cell lines); assay: In vitro median growth inhibitory conc. against leukemia was estimated.; format: functional; conditions: Homo sapiens
Homo sapiens = species: Homo sapiens; assay: Selectivity ratio between the full panel MG-MID and leukemia subpanel MG-MID was determined.; format: functional
[3] = tested on: Panel CNS (Carcinoma cell lines); assay: In vitro median growth inhibitory concentration against CNS cancer cell lines; format: functional; conditions: Homo sapiens
[4] = tested on: Panel renal (Carcinoma cell lines); assay: In vitro median growth inhibitory concentration against renal cancer cell lines; format: functional; conditions: Homo sapiens
MT4 = assay: In vitro inhibitory activity against uninfected T4 cells; format: functional, cell-based; conditions: Homo sapiens
Ovarian cancer cell line [5] = assay: In vitro growth inhibitory concentration against ovarian cancer cell lines; format: functional; conditions: Homo sapiens
[6] = tested on: Human immunodeficiency virus 1; assay: (§1) In vitro effective concentration against HIV-1 cytopathic effect in T4 cells; Inactive; format: functional, organism-based
[7] = In vitro growth inhibitory concentration against colon cancer tumor cell lines; format: functional; conditions: Homo sapiens
Breast cancer cell line [8] = assay: In vitro growth inhibitory concentration against breast cancer cell lines; format: functional; conditions: Homo sapiens
[9] = Full panel mean-graph midpoint (MG-MID).
[10] = In vitro median growth inhibitory concentration against colon cancer cell lines; format: functional; conditions: Homo sapiens
NSCLC [11] = assay: In vitro median growth inhibitory concentration against non-small-cell lung cancer; format: functional; conditions: Homo sapiens
[12] = tested on: Panel melanoma (Carcinoma cell lines); assay: In vitro median growth inhibitory concentration against melanoma cell lines; format: functional; conditions: Homo sapiens
Ovarian cancer cell line [13] = assay: In vitro median growth inhibitory concentration against ovarian cancer cell lines; format: functional; conditions: Homo sapiens
[14] = tested on: Panel prostate (Carcinoma cell lines); assay: In vitro median growth inhibitory concentration against prostate cancer cell lines; format: functional; conditions: Homo sapiens
Tumor cell line [15] = assay: Median lethal concentration was estimated; format: ADME, cell-based; conditions: human
Breast cancer cell line [16] = assay: In vitro median growth inhibitory concentration against breast cancer cell lines; format: functional; conditions: Homo sapiens
[17] = tested on: Panel prostate (Carcinoma cell lines); assay: In vitro growth inhibitory concentration against prostate cancer cell lines; format: functional; conditions: Homo sapiens
[18] = Full panel mean-graph midpoint (MG-MID)
[19] = tested on: Panel leukemia (Carcinoma cell lines); assay: In vitro growth inhibitory concentration against leukemia tumor cell lines; format: functional; conditions: Homo sapiens
[20] = tested on: Panel melanoma (Carcinoma cell lines); assay: In vitro growth inhibitory concentration against melanoma cancer cell lines; format: functional; conditions: Homo sapiens
NSCLC [21] = assay: In vitro growth inhibitory concentration against non-small-cell lung cancer; format: functional; conditions: Homo sapiens
[22] = tested on: Panel renal (Carcinoma cell lines); assay: In vitro growth inhibitory concentration against renal cancer cell lines; format: functional; conditions: Homo sapiens
Human alphaherpesvirus 1 [23] = assay: Minimum antiviral concentration proved to be lethal to viral population in ug/mL.; format: functional
Human alphaherpesvirus 1 [24] = assay: Minimum antiviral concentration proved to be lethal to viral population in uM; format: functional
Human alphaherpesvirus 1 [25] = assay: In vitro antiviral activity against Herpes Simplex-1 virus (HSV-1) expressed as percent reduction in the number of viral plaques; format: functional; parameters: concentration or dose not given beside the values
Human alphaherpesvirus 1 [26] = assay: Concentration which caused 50% loss of the monolayer present around the viral plaques in ug/mL.; format: functional, organism-based
Human alphaherpesvirus 1 [27] = assay: Concentration which caused 50% loss of the monolayer present around the viral plaques in uM; format: functional, organism-based
Tumor cell line [28] = assay: In vitro for median growth inhibitory concentration against renal cancer cell lines; format: functional; conditions: Homo sapiens
Tumor cell line [29] = assay: In vitro for median growth inhibitory concentration against colon cancer cell lines; format: functional; conditions: Homo sapiens
Tumor cell line [30] = assay: In vitro for median growth inhibitory concentration against CNS cancer cell lines; format: functional; conditions: Homo sapiens
Tumor cell line [31] = assay: In vitro for median growth inhibitory concentration against melanoma cell lines; format: functional; conditions: Homo sapiens
Tumor cell line [32] = assay: In vitro for median growth inhibitory concentration against prostate cancer cell lines; format: functional; conditions: Homo sapiens
Tumor cell line [33] = assay: In vitro for median growth inhibitory concentration against non small lung cancer cell lines; format: functional; conditions: Homo sapiens
Tumor cell line [34] = assay: In vitro for growth inhibitory concentration against non small lung cancer cell lines; format: functional; conditions: Homo sapiens
Tumor cell line [35] = assay: In vitro for median growth inhibitory concentration against ovarian cancer cell lines; format: functional; conditions: Homo sapiens
Tumor cell line [36] = assay: In vitro for median growth inhibitory concentration against leukemia; format: functional; conditions: Homo sapiens
Tumor cell line [37] = assay: In vitro for median growth inhibitory concentration against breast cancer cell lines; format: functional; conditions: Homo sapiens
T4 = assay: as §1; format: functional, cell-based; conditions: Homo sapiens
[38] = Therapeutic index (IC50/EC50) was determined; conditions: read-out: TI50
[39] = In vitro effective concentration against HIV-1 cytopathic effect in T4 cells; format: functional, cell-based; conditions: Homo sapiens
Tumor cell line [40] = assay: In vitro for median growth inhibitory conc. against leukemia (compounds full panel MG-MID/leukemia subpanel MG-MID); format: functional; conditions: Homo sapiens

Row | Compound | TGI [1] | GI50 [2] | Ratio (Homo sapiens) | GI50 [3] | GI50 [4] | IC50 (MT4) | TGI (Ovarian cancer cell line [5]) | EC50 [6] | TGI [7] | TGI (Breast cancer cell line [8]) | GI50 [10] | GI50 (NSCLC [11]) | GI50 [12] | GI50 (Ovarian cancer cell line [13]) | GI50 [14] | GI50 (Breast cancer cell line [16]) | MG-MID [18] | TGI [19] | TGI [20] | TGI [22] | further results
1 | CN1C/C(=C\c2cccs2)C2=NN(c3ccccc3)C(c3cccs3)C2C1 (stereo not given) | > 100 µM | 2.2 µM | 3.9 | 35.7 µM | 65.3 µM | 9.1 µM | > 100 µM | Not Active | 87.1 µM | > 100 µM | 3.8 µM | 20.8 µM | 42.5 µM | 24.2 µM | 19.3 µM | 23.6 µM | 72.9 µM | 52.2 µM | > 100 µM | > 100 µM | MG-MID [9]: 8.5 µM; LC50 (Tumor cell line [15]): 95.8 µM; TGI [17]: > 100 µM; TGI (NSCLC [21]): > 100 µM
2 | CN1C/C(=C\c2cccs2)C2=NN(C)C(c3cccs3)C2C1 (stereo not given) | > 100 µM | 31.8 µM | 2.1 | 80.7 µM | 89.7 µM | > 200 µM | > 100 µM | Not Active | > 100 µM | > 100 µM | 79.2 µM | 86.4 µM | 85 µM | 74.4 µM | 59.5 µM | 86 µM | 68 µM and 97.7 µM | 87.8 µM | 97.7 µM | > 100 µM | TGI [17]: > 100 µM; TGI (NSCLC [21]): > 100 µM
3 | Cc1ccc(/C=C2\CN(C)CC3C2=NN(c2ccccc2)C3c2ccc(C)cc2)cc1 (stereo not given) |  | 37.4 µM | 2.2 | 77 µM | 83.7 µM | > 200 µM |  | Not Active |  |  | > 100 µM | 97.4 µM | 77.9 µM | 92.8 µM | 69.5 µM | > 100 µM | 81 µM |  |  |  | 
4 | COc1ccc(/C=C2\CN(C)C/C(=C\c3ccc(OC)cc3)C2O)cc1 |  |  |  |  |  |  |  |  |  |  |  |  |  |  |  |  |  |  |  |  | MAC (Human alphaherpesvirus 1 [23]): 0.02 µg/mL; MAC (Human alphaherpesvirus 1 [24]): 0.06 µM; Reduction (Human alphaherpesvirus 1 [25]): 58%; IC50 (Human alphaherpesvirus 1 [26]): 0.04 µg/mL (≈ 0.114 µM); IC50 (Human alphaherpesvirus 1 [27]): 0.12 µM
5 | CN1C/C(=C\c2cccs2)C(=O)/C(=C/c2cccs2)C1 | 82.7 µM |  |  |  |  | 15.2 µM | 81.4 µM |  | 72.2 µM | 75.4 µM |  |  |  |  |  |  |  | 51.6 µM | 84.1 µM | 70.4 µM | GI50 (Tumor cell line [28]): 24.2 µM; GI50 (Tumor cell line [29]): 23.7 µM; GI50 (Tumor cell line [30]): 36.6 µM; GI50 (Tumor cell line [31]): 34.6 µM; GI50 (Tumor cell line [32]): 23.9 µM; MAC (Human alphaherpesvirus 1 [23]): 0.1 µg/mL; GI50 (Tumor cell line [33]): 36.5 µM; MAC (Human alphaherpesvirus 1 [24]): 3.3 µM; Reduction (Human alphaherpesvirus 1 [25]): 33%; IC50 (Human alphaherpesvirus 1 [26]): 0.2 µg/mL (≈ 0.663 µM); TGI (Tumor cell line [34]): 90.1 µM; IC50 (Human alphaherpesvirus 1 [27]): 0.66 µM; GI50 (Tumor cell line [35]): 23.5 µM; GI50 (Tumor cell line [36]): 10.6 µM; GI50 (Tumor cell line [37]): 28.7 µM; Inhibition (T4): inactive
6 | CN1C/C(=C\c2ccncc2)C(=O)/C(=C/c2ccncc2)C1 |  |  |  |  |  | > 200 µM |  |  |  |  |  |  |  |  |  |  |  |  |  |  | selectivity ratio [38]: > 3.09; EC50 [39]: 64.7 µM
7 | Cc1ccc(/C=C2\CN(C)C/C(=C\c3ccc(C)cc3)C2O)cc1 |  |  |  |  |  |  |  |  |  |  |  |  |  |  |  |  |  |  |  |  | MAC (Human alphaherpesvirus 1 [23]): 0.02 µg/mL; MAC (Human alphaherpesvirus 1 [24]): 0.06 µM; Reduction (Human alphaherpesvirus 1 [25]): 82%; IC50 (Human alphaherpesvirus 1 [26]): 0.2 µg/mL (≈ 0.626 µM); IC50 (Human alphaherpesvirus 1 [27]): 0.63 µM
8 | CN1CC2=C(OC(N)=C(C#N)C2c2cccs2)/C(=C/c2cccs2)C1 (stereo not given) | > 100 µM |  |  |  |  | 9 µM | 73.2 µM | Not Active | 87.3 µM | 57.7 µM |  |  |  |  |  |  | 57.8 µM | 27.6 µM | 87 µM | 81.6 µM | GI50 (Tumor cell line [28]): 32.5 µM; GI50 (Tumor cell line [29]): 17.3 µM; GI50 (Tumor cell line [30]): 42.2 µM; GI50 (Tumor cell line [40]): 3.2 µM; GI50 (Tumor cell line [31]): 36.3 µM; GI50 (Tumor cell line [32]): 13.5 µM; GI50 (Tumor cell line [33]): 16.3 µM; MG-MID [9]: 11.6 µM; TGI (Tumor cell line [34]): 75.5 µM; TGI [17]: 90.9 µM; GI50 (Tumor cell line [35]): 25 µM; TGI (Tumor cell line [37]): 27.9 µM
9 | Cc1ccc(/C=C2\CN(C)Cc3c2nc(O)c(C#N)c3-c2ccc(C)cc2)cc1 |  |  |  |  |  | > 200 µM |  | Not Active |  |  |  |  |  |  |  |  |  |  |  |  | 
